From patent US20260232666A1, “COMPOSITIONS AND METHODS FOR INHIBITION OF RAS” (TheRas, Inc., priority 2023, published 2026)

What was measured:
[1] = biological target: T1, GTP-loaded KRAS4b (amino acids 1-169) G12C/C118S protein (Homo sapiens, UniProt P01116, C118S/G12C); test: Covalent cysteine 12 modification by MALDI-TOF MS, GTP-loaded KRAS G12C; type: binding; conditions: 15 minutes reaction time point
T1 construct: KRAS4b (amino acids 1-169) G12C/C118S protein; made in house
Method in brief: (§1)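 Protein (1 μM) was incubated with compound at a 1:2.5 protein:compound ratio in 20 mM HEPES, 150 mM NaCl, 1 mM MgCl2, pH 7.3, at room temperature in the dark. After 15 min, samples were mixed into sinapinic acid matrix and analysed by linear-mode MALDI-TOF. Modification is adduct peak height over summed unmodified plus adduct heights.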

[2] = test system: pERK in NCI-H358 cells; test: Cell-based pERK HTRF assay (pERK inhibition in H358 cells); conditions: 30 min incubation
Method in brief: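 NCI-H358 cells were seeded at 4×10^4 cells/well in RPMI/10% FBS, then treated next day for 30 min at 0.25% DMSO (9-point, 3-fold series from 75 μM). Lysates were read by HTRF (d2/Eu cryptate antibody pair, 615 nm emission) after 4–24 h at room temperature to give pERK IC50.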

[3] = biological target: T2, GppNHp-loaded KRAS4b (amino acids 1-169) G12C/C118S protein (Homo sapiens, UniProt P01116, C118S/G12C); test: Covalent cysteine 12 modification by MALDI-TOF MS, GppNHp-loaded KRAS G12C; type: binding; conditions: 15 minutes reaction time point
T2 construct: KRAS4b (amino acids 1-169) G12C/C118S protein; made in house
Method in brief: as §1

[4] = biological target: T3, GDP-loaded KRAS4b (amino acids 1-169) G12C/C118S protein (Homo sapiens, UniProt P01116, C118S/G12C); test: Covalent cysteine 12 modification by MALDI-TOF MS, GDP-loaded KRAS G12C; type: binding; conditions: 15 minutes reaction time point
T3 construct: KRAS4b (amino acids 1-169) G12C/C118S protein; made in house
Method in brief: as §1

SMILES | GTP-KRAS G12C percent of modification [1] | IC50 ([2]; Homo sapiens, NCI-H358, 0.5 h) [nM] | GppNHp-KRAS G12C percent of modification [3] | GDP-KRAS G12C percent of modification [4] | IC50 [2] [nM]
C=CC(=O)N1CC[C@@H](N(C)c2nc(OC[C@@H]3C[C@@H](F)CN3CC)nc3c(F)c(-c4ccc(F)c5sc(N)c(C#N)c45)c(C(F)(F)F)cc23)[C@@H]1C [Compound 144] | C (10%≤percent of modification <50%) | < 100 | C (10%≤percent of modification <50%) | C (10%≤percent of modification <50%) | 
C=CC(=O)N1CC[C@H](N(CC)c2nc(OC[C@@]34CCCN3C[C@H](F)C4)nc3c(F)c(-c4ccc(F)c5sc(N)c(C#N)c45)c(C(F)(F)F)cc23)C1 (atropisomer, axis not shown) [Compound 171] | B (50≤percent of modification <70%) | < 100 | C (10%≤percent of modification <50%) | C (10%≤percent of modification <50%) | 
C=CC(=O)N1C[C@H](N(C)c2nc(OC[C@@]34CCCN3C[C@H](F)C4)nc3cc(-c4ccc(F)c5sc(N)c(C#N)c45)c(F)cc23)C[C@@H]1C [Compound 109] | C (10%≤percent of modification <50%) | < 100 | C (10%≤percent of modification <50%) | A (percent of modification ≥70%) | 
C=CC(=O)N1CCN(c2nc(OC[C@@]34CCCN3C[C@H](F)C4)nc3c(F)c(-c4ccc(F)c5sc(N)c(C#N)c45)c(C(F)(F)F)cc23)C2CC21 (some centres unmarked) [Compound 106] | C (10%≤percent of modification <50%) | < 100 | A (percent of modification ≥70%) | A (percent of modification ≥70%) | 
C=CC(=O)N1CC[C@@H](N(CC)c2nc(OC[C@@]34CCCN3C[C@H](F)C4)nc3cc(-c4ccc(F)c5sc(N)c(C#N)c45)c(C#N)cc23)[C@H]1C [Compound 25] | A (percent of modification ≥70%) | < 100 | A (percent of modification ≥70%) | A (percent of modification ≥70%) | 
C=CC(=O)N1CC[C@@H](N(CC)c2nc(OC[C@]34CCCN3C[C@H](F)C4)nc3cc(-c4ccc(F)c5sc(N)c(C#N)c45)c(F)cc23)[C@H]1C [Compound 167] | A (percent of modification ≥70%) | < 100 | A (percent of modification ≥70%) | A (percent of modification ≥70%) | 
C=CC(=O)N1CC[C@@H](N(C)c2nc(OC[C@@H]3CCCN3C)nc3c(F)c(-c4nc(N)cc(C)c4C(F)(F)F)c(C(F)(F)F)cc23)[C@H]1C [Compound 122] | B (50≤percent of modification <70%) | 100 to 1000 | A (percent of modification ≥70%) | A (percent of modification ≥70%) | 
C=CC(=O)N1CC[C@@H](N(C)c2nc(OC[C@@H]3CC4(CC4)CN3C)nc3c(F)c(-c4ccc(F)c5sc(N)c(C#N)c45)c(C(F)(F)F)cc23)[C@@H]1C [Compound 112] | D (percent of modification <10%) |  | D (percent of modification <10%) | D (percent of modification <10%) | 100 to 1000
C=CC(=O)N1CC[C@@H](N(C)c2nc(OC[C@@H]3C[C@@H](OC)CN3CC)nc3c(F)c(-c4ccc(F)c5sc(N)c(C#N)c45)c(C(F)(F)F)cc23)[C@@H]1C [Compound 101] | B (50≤percent of modification <70%) | < 100 | A (percent of modification ≥70%) | A (percent of modification ≥70%) | 
C=CC(=O)N1CC[C@@H](N(C)c2nc(OC[C@@H]3C[C@@H](OC)CN3CC)nc3c(F)c(-c4ccc(F)c5sc(N)c(C#N)c45)c(C(F)(F)F)cc23)[C@H]1C [Compound 104] | A (percent of modification ≥70%) | < 100 | A (percent of modification ≥70%) | A (percent of modification ≥70%) | 
C=CC(=O)N1CC[C@@H](N(C)c2nc(OC[C@@H]3CCCN3C)nc3c(F)c(-c4ccc(F)c5sc(N)c(C#N)c45)c(Cl)cc23)[C@H]1C (atropisomer, axis not shown) [Compound 118] | A (percent of modification ≥70%) |  | A (percent of modification ≥70%) | A (percent of modification ≥70%) | < 100
